Laboratory results as given in the supplement of paper PMC11061612.

Key:
Carboplatin = compound: C1CC(C1)(C(=O)[O-])C(=O)[O-].N.N.[Pt+2] [Carboplatin]; details: max 10 µM
Method in brief: (§1)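 After 24 hours at 37°C and 5% CO2 in 1536-well plates holding 7.5 μl of DMEM/F12 or RPMI with 10% FBS, cancer cell lines were dosed for 72 hours, with final DMSO typically 0.2%. Viability came from CellTiter-Glo 2.0 luminescence, scaled between the means of blank wells and DMSO wells. A non-linear mixed effects model fitted a two-parameter logistic curve to each dose response to give the single-agent IC50.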

AZD5363 = compound: C1CN(CCC1(C(=O)N[C@@H](CCO)C2=CC=C(C=C2)Cl)N)C3=NC=NC4=C3C=CN4 [AZD5363]; details: max 10 µM
Method in brief: as §1

AZD1775 = compound: C=CCn1c(=O)c2cnc(Nc3ccc(N4CCN(C)CC4)cc3)nc2n1-c1cccc(C(C)(C)O)n1 [AZD1775]; details: max 3 µM
Method in brief: as §1

Trametinib = compound: CC(=O)Nc1cccc(-n2c(=O)n(C3CC3)c(=O)c3c(Nc4ccc(I)cc4F)n(C)c(=O)c(C)c32)c1 [Trametinib]; details: max 1 µM
Method in brief: as §1

Paclitaxel = compound: CC(=O)O[C@H]1C(=O)[C@@]2(C)[C@H]([C@H](OC(=O)c3ccccc3)[C@]3(O)C[C@H](OC(=O)[C@H](O)[C@@H](NC(=O)c4ccccc4)c4ccccc4)C(C)=C1C3(C)C)[C@]1(OC(C)=O)CO[C@@H]1C[C@@H]2O [Paclitaxel]; details: max 3 µM
Method in brief: as §1

Palbociclib = compound: CC(=O)c1c(C)c2cnc(Nc3ccc(N4CCNCC4)cn3)nc2n(C2CCCC2)c1=O [Palbociclib]; details: max 10 µM
Method in brief: as §1

AZD1390 = compound: CC(C)n1c(=O)n(C)c2cnc3cc(F)c(-c4ccc(OCCCN5CCCCC5)nc4)cc3c21 [AZD1390]; details: max 0.3 µM
Method in brief: as §1

Venetoclax = compound: CC1(C)CCC(CN2CCN(c3ccc(C(=O)NS(=O)(=O)c4ccc(NCC5CCOCC5)c([N+](=O)[O-])c4)c(Oc4cnc5[nH]ccc5c4)c3)CC2)=C(c2ccc(Cl)cc2)C1 [Venetoclax]; details: max 1 µM
Method in brief: as §1

Dasatinib = compound: CC1=C(C(=CC=C1)Cl)NC(=O)C2=CN=C(S2)NC3=CC(=NC(=N3)C)N4CCN(CC4)CCO [Dasatinib]; details: max 2 µM
Method in brief: as §1

SG3199 = compound: CC1=CN2[C@@H](C1)C=NC3=CC(=C(C=C3C2=O)OC)OCCCCCOC4=C(C=C5C(=C4)N=C[C@@H]6CC(=CN6C5=O)C)OC [SG3199]; details: max 0.001 µM
Method in brief: as §1

AZD2811 = compound: CCN(CCO)CCCOc1ccc2c(Nc3cc(CC(=O)Nc4cccc(F)c4)[nH]n3)ncnc2c1 [AZD2811]; details: max 1 µM
Method in brief: as §1

SN-38 = compound: CCc1c2c(nc3ccc(O)cc13)-c1cc3c(c(=O)n1C2)COC(=O)[C@]3(O)CC [SN-38]; details: max 0.3 µM
Method in brief: as §1

AZD0156 = compound: CN(C)CCCOc1ccc(-c2ccc3ncc4c(c3c2)n(C2CCOCC2)c(=O)n4C)cn1 [AZD0156]; details: max 3 µM
Method in brief: as §1

AZD4320 = compound: CN(CC[C@H](CSC1=CC=CC=C1)NC2=C(C=C(C=C2)S(=O)(=O)NC(=O)C3=CC=C(C=C3)N4CCC(CC4)[C@H](C5=CC=CC=C5C6=CC=C(C=C6)Cl)O)S(=O)(=O)C(F)(F)F)CCO [AZD4320]; details: max 1 µM
Method in brief: as §1

Alisertib = compound: COc1cc(Nc2ncc3c(n2)-c2ccc(Cl)cc2C(c2c(F)cccc2OC)=NC3)ccc1C(=O)O [Alisertib]; details: max 10 µM
Method in brief: as §1

Etoposide = compound: COc1cc([C@@H]2c3cc4c(cc3[C@@H](O[C@@H]3O[C@@H]5CO[C@@H](C)O[C@H]5[C@H](O)[C@H]3O)[C@H]3COC(=O)[C@H]23)OCO4)cc(OC)c1O [Etoposide]; details: max 10 µM
Method in brief: as §1

Gefitinib = compound: COc1cc2ncnc(Nc3ccc(F)c(Cl)c3)c2cc1OCCCN1CCOCC1 [Gefitinib]; details: max 10 µM
Method in brief: as §1

Prexasertib = compound: COc1cccc(OCCCN)c1-c1cc(Nc2cnc(C#N)cn2)n[nH]1 [Prexasertib]; details: max 1 µM
Method in brief: as §1

Doxorubicin = compound: COc1cccc2c1C(=O)c1c(O)c3c(c(O)c1C2=O)C[C@@](O)(C(=O)CO)C[C@@H]3O[C@H]1C[C@H](N)[C@H](O)[C@H](C)O1 [Doxorubicin]; details: max 1 µM
Method in brief: as §1

AZD5153 = compound: COc1nnc2ccc(N3CCC(c4ccc(OCCN5CCN(C)C(=O)[C@H]5C)cc4)CC3)nn12 [AZD5153]; details: max 1 µM
Method in brief: as §1

Lapatinib = compound: CS(=O)(=O)CCNCc1ccc(-c2ccc3ncnc(Nc4ccc(OCc5cccc(F)c5)c(Cl)c4)c3c2)o1 [Lapatinib]; details: max 10 µM
Method in brief: as §1

AZD8186 = compound: C[C@@H](Nc1cc(F)cc(F)c1)c1cc(C(=O)N(C)C)cc2c(=O)cc(N3CCOCC3)oc12 [AZD8186]
Method in brief: as §1

Crizotinib = compound: C[C@@H](Oc1cc(-c2cnn(C3CCNCC3)c2)cnc1N)c1c(Cl)ccc(F)c1Cl [Crizotinib]; details: max 10 µM
Method in brief: as §1

Savolitinib = compound: C[C@@H](c1ccc2nccn2c1)n1nnc2ncc(-c3cnn(C)c3)nc21 [Savolitinib]; details: max 1 µM
Method in brief: as §1

AZD6738 = compound: C[C@@H]1COCCN1C2=NC(=NC(=C2)C3(CC3)[S@](=N)(=O)C)C4=C5C=CNC5=NC=C4 [AZD6738]; details: max 10 µM
Method in brief: as §1

AZD5991 = compound: Cc1c2c(nn1C)CSCc1cc(n(C)n1)CSc1cc(c3ccccc3c1)OCCCc1c(C(=O)O)n(C)c3c-2c(Cl)ccc13 [AZD5991]; details: max 1 µM
Method in brief: as §1

AZD7648 = compound: Cc1cc2ncnn2cc1Nc1ncc2c(n1)n(C1CCOCC1)c(=O)n2C [AZD7648]; details: max 10 µM
Method in brief: as §1

Taselisib = compound: Cc1nc(-c2cn3c(n2)-c2ccc(-c4cnn(C(C)(C)C(N)=O)c4)cc2OCC3)n(C(C)C)n1 [Taselisib]; details: max 10 µM
Method in brief: as §1

Selumetinib = compound: Cn1cnc2c(F)c(Nc3ccc(Br)cc3Cl)c(C(=O)NOCCO)cc21 [Selumetinib]; details: max 10 µM
Method in brief: as §1

SRA737 = compound: N#Cc1cnc(Nc2cc(NC[C@H]3CNCCO3)c(C(F)(F)F)cn2)cn1 [SRA737]; details: max 10 µM
Method in brief: as §1

MK-2206 = compound: NC1(c2ccc(-c3nc4ccn5c(=O)[nH]nc5c4cc3-c3ccccc3)cc2)CCC1 [MK-2206]; details: max 10 µM
Method in brief: as §1

Gemcitabine = compound: Nc1ccn([C@@H]2O[C@H](CO)[C@@H](O)C2(F)F)c(=O)n1 [Gemcitabine]; details: max 0.3 µM
Method in brief: as §1

[1] = compound: O=C(Nc1ccc2[nH]nc(-c3ccncc3)c2c1)[C@@H]1CCN(CC(=O)N2CCN(c3ccc(-c4ncccn4)cc3)CC2)C1; details: max 5 µM
Method in brief: as §1

Olaparib = compound: O=C(c1cc(Cc2n[nH]c(=O)c3ccccc23)ccc1F)N1CCN(C(=O)C2CC2)CC1 [Olaparib]; details: max 10 µM
Method in brief: as §1

5-Fluorouracil = compound: O=c1[nH]cc(F)c(=O)[nH]1 [5-Fluorouracil]; details: max 20 µM
Method in brief: as §1

Capivasertib = compound: C1CN(CCC1(C(=O)N[C@@H](CCO)C2=CC=C(C=C2)Cl)N)C3=NC=NC4=C3C=CN4 [Capivasertib]; details: max 10 µM
Method in brief: as §1

Cell Line | IC50, cell viability 72 h (Carboplatin) [µM] | IC50, cell viability 72 h (AZD5363) [µM] | IC50, cell viability 72 h (AZD1775) [µM] | IC50, cell viability 72 h (Trametinib) [µM] | IC50, cell viability 72 h (Paclitaxel) [µM] | IC50, cell viability 72 h (Palbociclib) [µM] | IC50, cell viability 72 h (AZD1390) [µM] | IC50, cell viability 72 h (Venetoclax) [µM] | IC50, cell viability 72 h (Dasatinib) [µM] | IC50, cell viability 72 h (SG3199) [µM] | IC50, cell viability 72 h (AZD2811) [µM] | IC50, cell viability 72 h (SN-38) [µM] | IC50, cell viability 72 h (AZD0156) [µM] | IC50, cell viability 72 h (AZD4320) [µM] | IC50, cell viability 72 h (Alisertib) [µM] | IC50, cell viability 72 h (Etoposide) [µM] | IC50, cell viability 72 h (Gefitinib) [µM] | IC50, cell viability 72 h (Prexasertib) [µM] | IC50, cell viability 72 h (Doxorubicin) [µM] | IC50, cell viability 72 h (AZD5153) [µM] | IC50, cell viability 72 h (Lapatinib) [µM] | IC50, cell viability 72 h (AZD8186; max 10 µM) [µM] | IC50, cell viability 72 h (Crizotinib) [µM] | IC50, cell viability 72 h (Savolitinib) [µM] | IC50, cell viability 72 h (AZD6738) [µM] | IC50, cell viability 72 h (AZD5991) [µM] | IC50, cell viability 72 h (AZD7648) [µM] | IC50, cell viability 72 h (Taselisib) [µM] | IC50, cell viability 72 h (Selumetinib) [µM] | IC50, cell viability 72 h (SRA737) [µM] | IC50, cell viability 72 h (MK-2206) [µM] | IC50, cell viability 72 h (Gemcitabine) [µM] | IC50, cell viability 72 h [1] [µM] | IC50, cell viability 72 h (Olaparib) [µM] | IC50, cell viability 72 h (5-Fluorouracil) [µM] | IC50, cell viability 72 h (Capivasertib) [µM] | IC50, cell viability 72 h (AZD8186; max 3 µM) [µM]
ES8 (Ewing's Sarcoma) | > 10 | 8.22 | 0.522 | > 1 | < 0.003 | 9.5 | > 0.3 | > 1 | > 2 | > 0.001 | 0.0058 | 0.00141 | > 3 | > 1 | 0.0162 | 0.358 | > 10 | 0.0417 | 0.0798 | 0.165 | > 10 | > 10 | 1.47 | > 1 | 3.46 | > 1 | > 10 | 0.8 | > 10 | > 10 | 5.79 | 0.00564 | > 5 | 3.25 | > 20 | – | –
GR-ST (B-Lymphoblastic Leukemia) | > 10 | 4.13 | 0.375 | > 1 | 0.00998 | 3.06 | > 0.3 | > 1 | > 2 | > 0.001 | > 1 | 0.00671 | > 3 | > 1 | > 10 | 9.02 | > 10 | 0.0168 | 0.684 | 0.0412 | 5.91 | 4.95 | 2.38 | > 1 | 1.74 | > 1 | > 10 | 0.874 | > 10 | 1.75 | 2.26 | 0.0198 | > 5 | > 10 | > 20 | – | –
K-562 (Chronic Myelogenous Leukemia) | > 10 | > 10 | 0.624 | > 1 | 0.0341 | > 10 | > 0.3 | > 1 | 0.0223 | > 0.001 | > 1 | 0.112 | > 3 | > 1 | 4.68 | > 10 | > 10 | 0.0195 | > 1 | > 1 | > 10 | > 10 | 2.11 | > 1 | 4.14 | > 1 | > 10 | > 10 | > 10 | 4.12 | > 10 | > 0.3 | > 5 | > 10 | > 20 | – | –
TC-71 (Ewing's Sarcoma) | – | – | 1.31 | > 1 | – | > 10 | > 0.3 | > 1 | > 2 | > 0.001 | 0.114 | 0.00221 | > 3 | 0.278 | 1.03 | – | > 10 | 0.0504 | 0.812 | 0.224 | > 10 | – | 6.7 | > 1 | 2.74 | > 1 | > 10 | 4.2 | > 10 | – | > 10 | – | – | > 10 | – | > 10 | > 3
TE-6 (Esophageal Squamous Cell Carcinoma) | – | – | > 3 | > 1 | – | > 10 | > 0.3 | > 1 | > 2 | > 0.001 | > 1 | > 0.3 | > 3 | > 1 | 6 | – | 1.75 | 0.893 | > 1 | 0.396 | 3.4 | – | > 10 | > 1 | 9.32 | 0.94 | > 10 | 0.245 | > 10 | – | 6.61 | – | – | > 10 | – | 2.84 | > 3
U251 (Low Grade Glioma) | – | – | > 3 | > 1 | – | > 10 | > 0.3 | > 1 | > 2 | > 0.001 | > 1 | 0.0131 | > 3 | > 1 | > 10 | – | > 10 | 0.323 | > 1 | > 1 | > 10 | – | > 10 | > 1 | > 10 | > 1 | > 10 | > 10 | > 10 | – | > 10 | – | – | > 10 | – | > 10 | > 3
